According to patent US9730445B2, “Herbicidal compositions comprising 4-amino-3-chloro-5-fluoro-6-(4-chloro-2-fluoro-3-methoxyphenyl) pyridine-2-carboxylic acid or a derivative thereof and fungicides” (DOW AGROSCIENCES LLC, priority 2013, dated 2017):

Columns and labels:
BRAPP = test: Postemergence foliar-applied weed control, direct-seeded rice (greenhouse); type: in vivo; details: 22 DAA, r38-40 ester 8/16/32 g ae/ha alone, r41-42 azoxystrobin 125/250 g ai/ha alone, r43-48 ester 8/16/32 at each of 125, 250
Source text: (§1) Seeds or nutlets of the desired test plant species were planted in a soil matrix prepared by mixing aloam or sandy loam soil (e.g., 28.6 percent silt, 18.8 percent clay, and 52.6 percent sand, with a pH of about 5.8 and an organic matter content of about 1.8 percent) and calcareous grit in an 80 to 20 ratio. The soil matrix was contained in plastic pots with a volume of 1 quart and a surface area of 83.6 square centimeters (cm^2). When required to ensure good germination and healthy plants, a fungicide treatment and/or other chemical or physical treatment was applied. The plants were grown for 8-22 days in a greenhouse with an approximate 14 hour (h) photoperiod which was maintained at about 29° C. during the day and 26° C. during the night. Nutrients (Peters Excel® 15-5-15 5-Ca 2-Mg and iron chelate) were applied in the irrigation solution as needed and water was added on a regular basis. Supplemental lighting was provided with overhead metal halide 1000-Watt lamps as necessary. The plants were employed for testing when they reached the first through fourth true leaf stage.
(§2) Treatments consisted of the acid or esters of 4-amino-3-chloro-5-fluoro-6-(4-chloro-2-fluoro-3-methoxy-phenyl)pyridine-2-carboxylic acid (Compound A), each formulated as an SC (suspension concentrate), and various fungicidal components alone and in combination. Forms of compound A were applied on an acid equivalent basis.
(§3) Treatment requirements were calculated based upon the rates being tested, the concentration of active ingredient or acid equivalent in the formulation and a 12 milliliter (mL) application volume at a rate of 187 liters per hectare (L/ha).
(§4) For treatments comprised of formulated compounds, measured amounts of compounds were placed individually in 25 mL glass vials and diluted in a volume of 1.25% volume per volume (v/v) Agri-Dex® crop oil concentrate to obtain 12× stock solutions. […] Application solutions were prepared by adding an appropriate amount of each stock solution (e.g., 1 mL) and diluted to the appropriate final concentrations with the addition of […] of an aqueous mixture of 1.25% (v/v) crop oil concentrate so that the final spray solutions contained 1.25+/−0.05% (v/v) crop oil concentrate.
(§5) For treatments comprised of technical compounds, weighed amounts can be placed individually in 25 mL glass vials and dissolved in a volume of 97:3 volume per volume (v/v) acetone/dimethyl sulfoxide (DMSO) to obtain 12× stock solutions. […] When technical materials are used, the concentrated stock solutions can be added to the spray solutions so that the final acetone and DMSO concentrations of the application solutions are 16.2% and 0.5%, respectively.
(§6) As required, additional water and/or 97:3 v/v acetone/DMSO was added to individual application solutions so that the final acetone and DMSO concentrations of the application solutions being compared were 8.1% and 0.25%, respectively
(§7) All stock solutions and applications solutions were visually inspected for compound compatibility prior to application. Spray solutions were applied to the plant material with an overhead Mandel track sprayer equipped with 8002E nozzles calibrated to deliver 187 L/ha over an application area of 0.503 square meters (m^2) at a spray height of 18 to 20 inches (46 to 50 cm) above average plant canopy height. Control plants were sprayed in the same manner with the solvent blank.
(§8) The treated plants and control plants were placed in a greenhouse as described above and watered by sub-irrigation to prevent wash-off of the test compounds. After approximately 3 weeks, the condition of the test plants as compared with that of the untreated plants was determined visually and scored on a scale of 0 to 100 percent where 0 corresponds to no injury or growth inhibition and 100 corresponds to complete kill. […]

CYPIR = test: as above; type: in vivo, Cyperus iria L. (rice flatsedge); details: 22 DAA, r22-23 ester 16/32 g ae/ha alone, r24-26 azoxystrobin 62.5/125/250 g ai/ha alone, r27-32 ester 16/32 at each of 62.5, 125, 250
Method: as §1, with “When required to ensure good germination and healthy plants, a fungicide treatment and/or other chemical or physical treatment was applied.” left out
as §2, §4, §5, §6, §7
(§9) The treated plants and control plants were placed in a greenhouse as described above and watered by sub-irrigation to prevent wash-off of the test compounds. After approximately 3 weeks, the condition of the test plants as compared with that of the untreated plants was determined visually and scored on a scale of 0 to 100 percent where 0 corresponds to no injury or growth inhibition and 100 corresponds to complete kill.
(§10) Colby's equation was used to determine the herbicidal effects expected from the mixtures (Colby, S. R. Calculation of the synergistic and antagonistic response of herbicide combinations. Weeds 1967, 15, 20-22.).
(§11) The following equation was used to calculate the expected activity of mixtures containing two active ingredients, A and B: Expected=A+B−(A×B/100)

DIGSA = test: as above; type: in vivo, Digitaria sanguinalis (L.) Scop. (large crabgrass); details: 21 DAA
Source text: as §1, §2, §3, §4, §5, §6, §7, §8

IPOHE = test: as above; type: in vivo, Ipomoea hederacea (L.) Jacq. (ivyleaf morningglory)
Method: as §1, with “When required to ensure good germination and healthy plants, a fungicide treatment and/or other chemical or physical treatment was applied.” left out
as §2, §4, §5, §6, §7, §9, §10, §11

ECHCO = test: as above; type: in vivo, Echinochloa colonum (L.) LINK (junglerice); details: 19 DAA, r9-11 ester 8/16/32 g ae/ha alone
Source text: as §1, §2, §3, §4, §5, §6, §7, §8

CYPRO = test: In-water applied weed control, transplanted paddy rice (greenhouse); type: in vivo, Cyperus rotundus L. (purple nutsedge); details: 22 DAA
Method: Weed seeds or nutlets of the desired test plant species were planted in puddled soil (mud) prepared by mixing a shredded, non-sterilized mineral soil (50.5 percent silt, 25.5 percent clay, and 24 percent sand, with a pH of about 7.6 and an organic matter content of about 2.9 percent) and water at a 1:1 volumetric ratio. The prepared mud was dispensed in 365 mL aliquots into 16-ounce (oz.) non-perforated plastic pots with a surface area of 86.59 square centimeters (cm^2) leaving a headspace of 3 centimeters (cm) in each pot. Rice seeds were planted in Sun Gro MetroMix® 306 planting mixture, which typically has a pH of 6.0 to 6.8 and an organic matter content of about 30 percent, in plastic plug trays. Seedlings at the second or third leaf stage of growth were transplanted into 860 mL of mud contained in 32-oz. non-perforated plastic pots with a surface area of 86.59 cm^2 4 days prior to herbicide application. The paddy was created by filling the headspace of the pots with 2.5 to 3 cm of water. When required to ensure good germination and healthy plants, a fungicide treatment and/or other chemical or physical treatment was applied. The plants were grown for 4-22 days in a greenhouse with an approximate 14 hour (h) photoperiod which was maintained at about 29° C. during the day and about 26° C. during the night. Nutrients were added as Osmocote® (17:6:10, N:P:K+minor nutrients) at 2 g per cup. Water was added on a regular basis to maintain the paddy flood, and supplemental lighting was provided with overhead metal halide 1000-Watt lamps as necessary. The plants were employed for testing when they reached the first through fourth true leaf stage.
as §2, with “(compound A)” for “(Compound A),”, “concentrate)” for “concentrate),”
Treatment requirements for each compound or fungicidal component were calculated based upon the rates being tested, the concentration of active ingredient or acid equivalent in the formulation, an application volume of 2 mL per component per pot, and an application area of 86.59 cm^2 per pot.
For formulated compounds, a measured amount was placed in an individual 100 or 200 mL glass vial and was dissolved in a volume of 1.25% (v/v) Agri-Dex® crop oil concentrate to obtain application solutions.
For technical grade compounds, a weighed amount was placed in an individual 100 to 200 mL glass vial and dissolved in a volume of acetone to obtain concentrated stock solutions.
Applications were made by injecting with a pipetter appropriate amounts of the application solutions, individually and sequentially, into the aqueous layer of the paddy. Control plants were treated in the same manner with the solvent blank. Applications were made so that all treated plant material received the same concentrations of acetone and crop oil concentrate.
as §9, with “water was added as needed” for “watered by sub-irrigation”, “maintain a paddy flood.” for “prevent wash-off of the test compounds.”, “weeks” for “weeks,”
as §10, §11

LEFCH = test: Postemergence foliar-applied weed control, direct-seeded rice (greenhouse); type: in vivo, Leptochloa chinensis (L.) Nees (Chinese sprangletop)
Method: as §1, with “When required to ensure good germination and healthy plants, a fungicide treatment and/or other chemical or physical treatment was applied.” left out
as §2, §4, §5, §6, §7, §9, §10, §11

ECHCG = test: as above; type: in vivo, Echinochloa crus-galli (L.) P. Beauv. (barnyardgrass); details: r10-11 ester 8/16 g ae/ha alone, r12-14 phthalide 100/200/300 g ai/ha alone, r15-20 ester 8/16 at each of 100, 200, 300
Method: as §1, with “When required to ensure good germination and healthy plants, a fungicide treatment and/or other chemical or physical treatment was applied.” left out
as §2, §4, §5, §6, §7, §9, §10, §11

[1] = r9-11 acid 5.3/10.6/21.2 g ae/ha alone, r12 azoxystrobin 250 g ai/ha alone, r13-15 acid 5.3/10.6/21.2 + 250
[2] = r10-12 ester 4.38/8.75/17.5 g ae/ha alone, r13 azoxystrobin 250 g ai/ha alone, r14-16 ester 4.38/8.75/17.5 + 250
[3] = r9-11 acid 5.3/10.6/21.2 g ae/ha alone, r12 myclobutanil 250 g ai/ha alone, r13-15 acid 5.3/10.6/21.2 + 250

With CO/C=C(/C(=O)OC)c1ccccc1Oc1cc(Oc2ccccc2C#N)ncn1 [Azoxystrobin, methyl (2E)-2-{2-[6-(2-cyanophenoxy)pyrimidin-4-yloxy]phenyl}3-methoxyacrylate, reference compound] the “Visual Weed Control (%) - 22 DAA BRAPP Obs” value (BRAPP) was 0%, the “Visual Weed Control (%) - 22 DAA CYPIR Obs” value (CYPIR) was 0% and the “Visual Weed Control (%) - 21 DAA DIGSA Obs” value (DIGSA; [1]) was 0%. The “Visual Weed Control (%) - 21 DAA DIGSA Obs” value (DIGSA; [2]) was 0%, the “Visual Weed Control (%) - 21 DAA IPOHE Obs” value (IPOHE; [1]) was 0% and the “Visual Weed Control (%) - 21 DAA IPOHE Obs” value (IPOHE; [2]) was 0%.
COC(=O)Nc1nc2ccccc2[nH]1 [Carbendazim, methyl benzimidazol-2-ylcarbamate, reference compound] was tested, and the “Visual Weed Control (%) - 19 DAA ECHCO Obs” value (ECHCO; r12-13 carbendazim 125/250 g ai/ha alone, r14-19 ester 8/16/32 at each of 125, 250) was 0%.
In the case of COc1c(Cl)ccc(-c2nc(C(=O)O)c(Cl)c(N)c2F)c1F [Compound A Acid, 4-amino-3-chloro-5-fluoro-6-(4-chloro-2-fluoro-3-methoxy-phenyl)pyridine-2-carboxylic acid], the “Visual Weed Control (%) - 22 DAA CYPRO Obs” value (CYPRO; Compound A Acid 10.6 g ae/ha) is reported as 0%, the “Visual Weed Control (%) - 22 DAA CYPRO Obs” value (CYPRO; Compound A Acid 21.2 g ae/ha) is reported as 25% and the “Visual Weed Control (%) - 22 DAA CYPRO Obs” value (CYPRO; Compound A Acid 42.4 g ae/ha) is reported as 95%.
For CC(C)Oc1cccc(NC(=O)c2ccccc2C(F)(F)F)c1 [Flutolanil, α,α,α-trifluoro-3′-isopropoxy-o-toluanilide, reference compound], the “Visual Weed Control (%) - 19 DAA ECHCO Obs” value (ECHCO; r12-13 flutolanil 280/560 g ai/ha alone, r14-19 ester 8/16/32 at each of 280, 560) was 0% and the “Visual Weed Control (%) - 19 DAA LEFCH Obs” value (LEFCH; 19 DAA, r9-11 ester 8/16/32 g ae/ha alone, r12-13 flutolanil 280/560 g ai/ha alone, r14-19 ester 8/16/32 at each of 280, 560) was 0%.
CCCCC(C#N)(Cn1cncn1)c1ccc(Cl)cc1 (stereo not drawn) [Myclobutanil, 2-p-chlorophenyl-2-(1H-1,2,4-triazol-1-ylmethyl)hexanenitrile, reference compound] was tested, and the “Visual Weed Control (%) - 21 DAA LEFCH Obs” value (LEFCH; [3]) was 0% and the “Visual Weed Control (%) - 21 DAA IPOHE Obs” value (IPOHE; [3]) was 10%.
With O=C1OCc2c(Cl)c(Cl)c(Cl)c(Cl)c21 [Phthalide, 4,5,6,7-tetrachlorophthalide] the “Visual Weed Control (%) - 21 DAA ECHCG Obs” value (ECHCG) was 0%.
With CCCC1COC(Cn2cncn2)(c2ccc(Cl)cc2Cl)O1 (stereo not drawn) [Propiconazole, 1-[2-(2,4-dichlorophenyl)-4-propyl-1,3-dioxolan-2-ylmethyl]-1H-1,2,4-triazole, reference compound] the “Visual Weed Control (%) - 21 DAA DIGSA Obs” value (DIGSA; r9-11 acid 5.3/10.6/21.2 g ae/ha alone, r12 propiconazole 190 g ai/ha alone, r13-15 acid 5.3/10.6/21.2 + 190) was 0%.
“manganese ethylenebis(dithiocarbamate) (polymeric) complex with zinc salt [Mancozeb, reference compound]” was tested, and the “Visual Weed Control (%) - 21 DAA LEFCH Obs” value (LEFCH; r10-11 ester 16/32 g ae/ha alone, r12 mancozeb 840 g ai/ha alone, r13-14 ester 16/32 + 840) was 0% and the “Visual Weed Control (%) - 21 DAA IPOHE Obs” value (IPOHE; r20-22 ester 8/16/32 g ae/ha alone, r23 mancozeb 1680 g ai/ha alone, r24-26 ester 8/16/32 + 1680) was 0%.
